{"source": "patent US8242174B2", "about": "(priority 2007, dated 2012)", "note": "Structures can show the parent of a compound that is named as a salt.", "data": [{"target": "Lethal factor protease (Bacillus anthracis, UniProt P15917)", "sequence (P15917 34-809 limits assumed)": "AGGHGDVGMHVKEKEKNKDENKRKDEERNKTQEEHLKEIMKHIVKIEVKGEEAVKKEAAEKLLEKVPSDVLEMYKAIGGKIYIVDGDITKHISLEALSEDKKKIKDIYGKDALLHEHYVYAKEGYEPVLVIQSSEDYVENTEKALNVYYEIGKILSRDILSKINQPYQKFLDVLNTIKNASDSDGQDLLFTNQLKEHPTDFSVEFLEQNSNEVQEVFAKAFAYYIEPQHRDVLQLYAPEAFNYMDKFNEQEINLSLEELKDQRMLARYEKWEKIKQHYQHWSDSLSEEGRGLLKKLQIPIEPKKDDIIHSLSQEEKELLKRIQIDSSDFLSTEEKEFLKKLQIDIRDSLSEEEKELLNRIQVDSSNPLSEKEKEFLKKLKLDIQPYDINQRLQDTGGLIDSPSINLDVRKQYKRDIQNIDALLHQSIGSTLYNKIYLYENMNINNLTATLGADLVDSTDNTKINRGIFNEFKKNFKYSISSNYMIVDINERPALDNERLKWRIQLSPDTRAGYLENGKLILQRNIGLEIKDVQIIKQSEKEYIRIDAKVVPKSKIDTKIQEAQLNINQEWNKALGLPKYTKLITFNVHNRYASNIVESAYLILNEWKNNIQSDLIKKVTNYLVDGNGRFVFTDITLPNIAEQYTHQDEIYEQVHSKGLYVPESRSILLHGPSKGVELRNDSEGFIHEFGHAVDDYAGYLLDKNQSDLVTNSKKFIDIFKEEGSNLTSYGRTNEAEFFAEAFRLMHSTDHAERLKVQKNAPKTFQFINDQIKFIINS", "assay": "biochemical", "units": {"Ki": "nM"}, "values": [{"molecule": "Cc1cc(N[C@H](CCCCNS(=O)(=O)c2cccc(N(C)C)c2)C(=O)NO)cc(C)c1F", "note": "[Compound 167700, (R)-6-(3-Dimethylamino-benzenesulfonylamino)-2-(4-fluoro-3,5-dimethyl-phenylamino)-hexanoic acid hydroxyamide]", "Ki": 880}, {"molecule": "CCCC(CCC)CNCCCC[C@@H](Nc1ccc(F)c(C)c1)C(=O)NO", "note": "[Compound 168167, (R)-2-(4-Fluoro-3-methyl-phenylamino)-6-(2-propyl-pentylamino)-hexanoic acid hydroxyamide]", "Ki": 250}, {"molecule": "Cc1cc(N[C@H](CCCCNC(=O)Cc2cccc(Oc3ccccc3)c2)C(=O)NO)cc(C)c1F", "note": "[Compound 167611, (R)-2-(4-Fluoro-3,5-dimethyl-phenylamino)-6-[2-(3-phenoxy-phenyl)-acetylamino]-hexanoic acid hydroxyamide]", "Ki": 740}, {"molecule": "Cc1cc(N[C@H](CCCCN(Cc2ccccc2)Cc2ccccc2)C(=O)NO)cc(C)c1F", "note": "[Compound 167738, (R)-6-Dibenzylamino-2-(4-fluoro-3,5-dimethyl-phenylamino)-hexanoic acid hydroxyamide]", "Ki": 430}, {"molecule": "Cc1cc(N[C@H](CCCCNC(=O)CCc2ccccc2)C(=O)NO)ccc1F", "note": "[Compound 167993, (R)-2-(4-Fluoro-3-methyl-phenylamino)-6-(3-phenyl-propionylamino)-hexanoic acid hydroxyamide]", "Ki": 880}, {"molecule": "CCCCC(Nc1cc(C)cc(C)c1)C(=O)NO", "note": "(stereo not drawn) [Compound 167226, 2-(3,5-Dimethyl-phenylamino)-hexanoic acid hydroxyamide]", "Ki": 7400}, {"molecule": "Cc1cc(N[C@H](CCCCNCc2cnccn2)C(=O)NO)ccc1F", "note": "[Compound 168168, (R)-2-(4-Fluoro-3-methyl-phenylamino)-6-[(pyrazin-2-ylmethyl)-amino]-hexanoic acid hydroxyamide]", "Ki": 630}, {"molecule": "Cc1cc(N[C@@H](C(=O)NO)C(C)C)cc(C)c1F", "note": "[Compound 167264, (R)-2-(4-Fluoro-3,5-dimethyl-phenylamino)-N-hydroxy-3-methyl-butyramide]", "Ki": 3100}, {"molecule": "Cc1cc(S(=O)(=O)NCCCC[C@@H](Nc2cc(C)c(F)c(C)c2)C(=O)NO)ccc1F", "note": "[Compound 167590, (R)-2-(4-Fluoro-3,5-dimethyl-phenylamino)-6-(4-fluoro-3-methyl-benzenesulfonylamino)-hexanoic acid hydroxyamide]", "Ki": 250}, {"molecule": "Cc1cc(N[C@H](CCCCN(Cc2ccc(F)nc2)Cc2ccc(F)nc2)C(=O)NO)ccc1F", "note": "[Compound 168080, (R)-6-[Bis-(6-fluoro-pyridin-3-ylmethyl)-amino]-2-(4-fluoro-3-methyl-phenylamino)-hexanoic acid hydroxyamide]", "Ki": 10600}, {"molecule": "Cc1cc(CN(CCCC[C@@H](Nc2ccc(F)c(C)c2)C(=O)NO)Cc2ccc(F)c(C)c2)ccc1F", "note": "[Compound 167966, (R)-6-[Bis-(4-fluoro-3-methyl-benzyl)-amino]-2-(4-fluoro-3-methyl-phenylamino)-hexanoic acid hydroxyamide]", "Ki": 6700}, {"molecule": "CCCCC(Nc1ccc(F)c(C)c1)C(=O)NO", "note": "(stereo not drawn) [Compound 167162, 2-(4-Fluoro-3-methyl-phenylamino)-hexanoic acid hydroxyamide]", "Ki": 2000}, {"molecule": "Cc1cc(N[C@H](CCCCNS(=O)(=O)c2ccccc2)C(=O)NO)cc(C)c1F", "note": "[Compound 167615, (R)-6-Benzenesulfonylamino-2-(4-fluoro-3,5-dimethyl-phenylamino)-hexanoic acid hydroxyamide]", "Ki": 840}, {"molecule": "Cc1cc(N[C@H](CCCCNS(=O)(=O)c2ccc(F)cc2)C(=O)NO)cc(C)c1F", "note": "[Compound 167589, (R)-6-(4-Fluoro-benzenesulfonylamino)-2-(4-fluoro-3,5-dimethyl-phenylamino)-hexanoic acid hydroxyamide]", "Ki": 1250}, {"molecule": "Cc1cc(N[C@H](CCCCNC(=O)OC(C)(C)C)C(=O)NO)cc(C)c1F", "note": "[Compound 167561, (R)-[5-(4-Fluoro-3,5-dimethyl-phenylamino)-5-hydroxycarbamoyl-pentyl]-carbamic acid tert-butyl ester]", "Ki": 710}, {"molecule": "CCCCC(Nc1ccccc1OC)C(=O)NO", "note": "(stereo not drawn) [Compound 167293, 2-(2-Methoxy-phenylamino)-hexanoic acid hydroxyamide]", "Ki": "> 300000"}, {"molecule": "Cc1cc(N[C@H](CCCCN)C(=O)NO)cc(C)c1F", "note": "[Compound 167517, (R)-6-Amino-2-(4-fluoro-3,5-dimethyl-phenylamino)-hexanoic acid hydroxyamide]", "Ki": 250}, {"molecule": "Cc1cc(CCCCCC[C@@H](Nc2cc(C)c(F)c(C)c2)C(=O)NO)ccc1F", "note": "[Compound 168118, (R)-2-(4-Fluoro-3,5-dimethyl-phenylamino)-8-(4-fluoro-3-methyl-phenyl)-octanoic acid hydroxyamide]", "Ki": 7200}, {"molecule": "CCCCC(Nc1cc(F)cc(F)c1)C(=O)NO", "note": "(stereo not drawn) [Compound 167807, 2-(3,5-Difluoro-phenylamino)-hexanoic acid hydroxyamide]", "Ki": 228000}, {"molecule": "Cc1cc(N[C@H](C(=O)NO)C(C)C)ccc1F", "note": "[Compound 167268, (S)-2-(4-Fluoro-3-methyl-phenylamino)-N-hydroxy-3-methyl-butyramide hydrochloride]", "Ki": "> 300000"}, {"molecule": "CCC[C@@H](Nc1cc(C)c(F)c(C)c1)C(=O)NO", "note": "[Compound 167391, (R)-2-(4-Fluoro-3,5-dimethyl-phenylamino)-pentanoic acid hydroxyamide]", "Ki": 500}, {"molecule": "Cc1cc(N[C@H](CC(C)C)C(=O)NO)cc(C)c1F", "note": "[Compound 167402, (R)-2-(4-Fluoro-3,5-dimethyl-phenylamino)-4-methyl-pentanoic acid hydroxyamide]", "Ki": 670}, {"molecule": "CCCCC(Nc1ccccc1F)C(=O)NO", "note": "(stereo not drawn) [Compound 167291, 2-(2-Fluoro-phenylamino)-hexanoic acid hydroxyamide]", "Ki": "> 300000"}, {"molecule": "CCCCC(Nc1cccc(Cl)c1)C(=O)NO", "note": "(stereo not drawn) [Compound 167257, 2-(3-Chloro-phenylamino)-hexanoic acid hydroxyamide]", "Ki": 61500}, {"molecule": "CCCCC(Nc1ccccc1C)C(=O)NO", "note": "(stereo not drawn) [Compound 167292, 2-o-Tolylamino-hexanoic acid hydroxyamide]", "Ki": 273000}, {"molecule": "Cc1cccc(CNCCCC[C@@H](Nc2cc(C)c(F)c(C)c2)C(=O)NO)c1", "note": "[Compound 167698, (R)-2-(4-Fluoro-3,5-dimethyl-phenylamino)-6-(3-methyl-benzylamino)-hexanoic acid hydroxyamide]", "Ki": 160}, {"molecule": "CC(=O)NCCCC[C@@H](Nc1cc(C)c(F)c(C)c1)C(=O)NO", "note": "[Compound 167552, (R)-6-Acetylamino-2-(4-fluoro-3,5-dimethyl-phenylamino)-hexanoic acid hydroxyamide]", "Ki": 2530}, {"molecule": "CCCCC(Nc1ccc(C)c(F)c1C)C(=O)NO", "note": "(stereo not drawn) [Compound 167455, 2-(3-Fluoro-2,4-dimethyl-phenylamino)-hexanoic acid hydroxyamide]", "Ki": 88100}, {"molecule": "Cc1cc(N[C@H](CCCCNS(=O)(=O)c2cccc([N+](=O)[O-])c2)C(=O)NO)cc(C)c1F", "note": "[Compound 167622, (R)-2-(4-Fluoro-3,5-dimethyl-phenylamino)-6-(3-nitro-benzenesulfonylamino)-hexanoic acid hydroxyamide]", "Ki": 150}, {"molecule": "Cc1cc(N[C@H](CCCCNCc2ccc(Cl)cc2)C(=O)NO)ccc1F", "note": "[Compound 168181, (R)-6-(4-Chloro-benzylamino)-2-(4-fluoro-3-methyl-phenylamino)-hexanoic acid hydroxyamide]", "Ki": 190}]}]}
